Laboratory results as given in paper PMC11491004, “CHF6523 data suggest that the phosphoinositide 3-kinase delta isoform is not a suitable target for the management of COPD” (Respiratory Research, 2024).

Assay: CHF6523 plasma pharmacokinetics in patients with COPD
Format: in vivo, human
Settings: for AUC0–30 min / AUC0–12 h / Cmax: 2 mg twice daily inhaled
Experimental: All assessment timings were based on the morning dose. Pre-dose on Days 1 and 28 of each treatment period, blood samples were taken for pharmacokinetic analyses, followed by forced oscillation (including slow vital capacity manoeuvres for inspiratory capacity [IC] and vital capacity [VC]), spirometry (forced expiratory volume in 1 s [FEV1] and forced vital capacity [FVC]), and the COPD Assessment Test (CAT). Blood samples were also taken up to 12 h post-dose on Days 1 and 28 for pharmacokinetic analyses, with blood samples for biomarker assessment pre-dose on Day 1 and 2 h post-dose on Day 28, and spirometry pre-dose on Days 20 and 24. Sputum was induced prior to each treatment period for baseline determination of biomarkers, and post-dose on Day 20 for collection of phosphatidylinositol (3,4,5)-trisphosphate (PIP3), and on Days 24 and 28 for collection of biomarkers.
Pharmacokinetic assessments were performed under fasting conditions. On days when pharmacokinetic samples were taken, study drug was administered in the morning at the clinical site after a fast of ≥ 10 h (water was allowed), with food or fluid intake not allowed until 1 h post-dose, with the exception of 100 mL of water if the patient coughed as a result of inhalation. Starting from 1 h post-dose and for the following 6 h, patients drank ≥ 240 mL of water every 2 h, with breakfast and lunch served approximately 3 and 5 h after morning study drug, and, on Day 1, dinner at least 2 h before or 1 h after evening drug administration. No intake of alcohol, grapefruit, or xanthine/caffeine containing beverages or food was allowed from 48 h prior to each intake of study medication and until the last visit procedure, with strenuous exercise prohibited for 24 h before any spirometry measurement.
Blood samples of 2 mL were collected in K2-EDTA tubes at pre-dose and at 10, 15, 30, and 45 min and 1, 1½, 2, 3, 4, 6, 8 and 12 h post-dose on Days 1 and 28, and pre-dose on Days 20 and 24. Collected samples were centrifuged within 1 h after blood in a refrigerated centrifuge (at about +4°C) at about 2000 x g for 10 min. The plasma obtained was transferred into two polypropylene tubes (at least 500 μL into the first, and the remaining volume into the second), then stored at or below –80°C, at the clinical centre. The tubes were then transferred (frozen) to a central laboratory, and stored at –80°C until submitted for analysis with a validated liquid chromatography with tandem mass spectrometry (LC/MS-MS) method. Two validated methods were used to cover the range of possible concentrations. The first one, the so-called low-range method, measured CHF6523 over the calibration range 0.02–1.00 ng/mL. The second, the high-range method, measured CHF6523 over the calibration range 1.00–50.0 ng/mL. Overall, the lower limit of quantification in this study (LLoQ) was of 0.02 ng/mL.

**Q.** For `C[C@@H](c1oc(=O)c2ccccc2c1-c1cccc(CN2CCN(C)CC2)c1)n1nc(-c2cncc(O)c2)c2c(N)ncnc21` [CHF6523], which “Time of peak of mean plasma concentration” value (Day 1) is on record?
**A.** The value was 15 min.

**Q.** And the median tmax (Day 1)?
**A.** Its median tmax is 15 min.

**Q.** And the median tmax (Day 28)?
**A.** The median tmax was 11 min.

**Q.** What about the “Time of peak of mean plasma concentration” value (Day 28 (first post-dose timepoint)) of the same compound?
**A.** Its value is 10 min.

**Q.** And the “AUC0–30 min” value (plasma, Day 1, mean (SD))?
**A.** Its value is 3.28 (1.64) ng.h/mL.

**Q.** And the “AUC0–12 h” value (plasma, Day 1, mean (SD))?
**A.** Its value is 8.10 (4.11) ng.h/mL.

**Q.** What about the Cmax (plasma, Day 1, mean (SD)) of the same compound?
**A.** Its Cmax is 9.10 (4.42) ng/mL.

**Q.** And the tmax (plasma, Day 1, median (range))?
**A.** The tmax was 0.25 (0.15–2.00) h.

**Q.** What about the Ctrough (plasma, Day 20 pre-dose, mean (SD)) of the same compound?
**A.** Its Ctrough is 0.10 (0.05) ng/mL.

**Q.** And the Ctrough (plasma, Day 24 pre-dose, mean (SD))?
**A.** The Ctrough was 0.09 (0.06) ng/mL.

**Q.** What about the “AUC0–30 min” value (plasma, Day 28, mean (SD)) of the same compound?
**A.** The value was 4.21 (2.05) ng.h/mL.

**Q.** What about the “AUC0–12 h” value (plasma, Day 28, mean (SD)) of the same compound?
**A.** Its value is 10.50 (5.32) ng.h/mL.

**Q.** What about the Cmax (plasma, Day 28, mean (SD)) of the same compound?
**A.** Its Cmax is 11.70 (5.54) ng/mL.

**Q.** What about the “CL/Fss (apparent total body clearance at steady state)” value (plasma, Day 28, dose/AUC 0-12 h, mean (SD)) of the same compound?
**A.** The value was 239 (119) L/h.

**Q.** And the Cav (plasma, Day 28, mean (SD))?
**A.** Its Cav is 0.88 (0.45) ng/mL.

**Q.** And the Cmin (plasma, Day 28, mean (SD))?
**A.** The Cmin was 0.09 (0.03) ng/mL.

**Q.** What about the tmax (plasma, Day 28, median (range)) of the same compound?
**A.** Its tmax is 0.18 (0.15–0.27) h.

**Q.** And the tmin (plasma, Day 28, median (range))?
**A.** The tmin was 11.92 (8.13–12.17) h.

**Q.** What about the Ctrough (plasma, Day 28 pre-dose, mean (SD)) of the same compound?
**A.** Its Ctrough is 0.09 (0.06) ng/mL.
